The values below come from ChEMBL document CHEMBL1158996, “Antiviral phloroglucinols from New Zealand Kunzea species” (1992).

The test system of experiment [1] is Human alphaherpesvirus 1. The experiment in a line: Antiviral activity against Herpes simplex virus type 1 assessed as inhibition of virus-induced cytopathic effect at 5 ug/disk. The note with it: read-out: IZ. It is filed as functional. In general terms: Damage to the host cells serves as the signal in cytopathic effect assays.
Experiment [2] relates to Poliovirus 1. The experiment in a line: Antiviral activity against Poliovirus type 1 assessed as inhibition of virus-induced cytopathic effect at 5 ug/disk. Type of experiment: functional. The note with it: Enterovirus C; read-out: IZ.

With `COc1cc(O)c(C(=O)C(C)C)c(O)c1`, the zone of inhibition at 5 µg/disc in experiment [1] and in experiment [2] was 17 mm in each case.
Consider `COc1cc(O)cc(O)c1C(=O)C(C)C` [ROBUSTAOL B], for which the zone of inhibition at 5 µg/disc in experiment [1] and in experiment [2] was 17 mm throughout.
